Reference: US10537558B2 (Bantam Pharmaceutical, LLC, priority 2015, dated 2020)

System: BJAB cells
Assay: BJAB cell proliferation (Cell Titer Glo)
Assay type: cell-based
Conditions: Homo sapiens, read-out: EC50
Description: Cells were seeded in white Corning Costar 96-well assay plates at 2500 cells/well in 50 μL of medium. Serial dilutions of test compounds were made in cell culture medium/FBS+0.2% DMSO, and transferred to assay plates in a volume of 50 μL (DMSO at 0.1% final). Plates were maintained at 37° C. for approximately 72 hours. The effect of compounds on cell proliferation was evaluated using the Cell Titer Glo reagent (Promega), according to the manufacturer's instructions. Briefly, 100 μL of reagent was added per well, and after a 10 minute incubation luminescence values were determined on a plate reader (Tecan F200PRO). The percent of luminescence signal relative to untreated controls was calculated for each compound concentration, and EC50 values were determined from dose response data by non-linear regression analysis using Prism (GraphPad). The mTor inhibitor Torin1 (Liu, et al. (2010) J. Med. Chem. 53, 7146.) was used as a control. The data are summarized in the compound table provided above.

| Compound | EC50 |
| --- | --- |
| COC(=O)c1c(Cc2ccccc2[N+](=O)[O-])c(C)nn1-c1nc(-c2ccc(Cl)c(Cl)c2)cs1 [Compound 1, methyl 1-(4-(3,4-dichlorophenyl)thiazol-2-yl)-3-methyl-4-(2-nitrobenzyl)-1H-pyrazole-5-carboxylate] | > 50 µM |
| Cc1nn(-c2nc(-c3ccc(Cl)c(Cl)c3)cs2)c(C(=O)O)c1Cc1ccccc1[N+](=O)[O-] [Compound 2, 1-(4-(3,4-dichlorophenyl)thiazol-2-yl)-3-methyl-4-(2-nitrobenzyl)-1H-pyrazole-5-carboxylic acid] | > 50 µM |
| CCSc1sc(-n2nc(C)c(Cc3ccccc3[N+](=O)[O-])c2C(=O)OC)nc1-c1ccc(Cl)c(Cl)c1 [Compound 3, methyl 1-(4-(3,4-dichlorophenyl)-5-(ethylthio)thiazol-2-yl)-3-methyl-4-(2-nitrobenzyl)-1H-pyrazole-5-carboxylate] | > 80 µM |
| CCSc1sc(-n2nc(C)c(Cc3ccccc3[N+](=O)[O-])c2C(=O)O)nc1-c1ccc(Cl)c(Cl)c1 [Compound 4, 1-(4-(3,4-dichlorophenyl)-5-(ethylthio)thiazol-2-yl)-3-methyl-4-(2-nitrobenzyl)-1H-pyrazole-5-carboxylic Acid] | 50 to 100 µM |
| COC(=O)c1c(Cc2ccccc2[N+](=O)[O-])c(C)nn1-c1nc(-c2ccc(Cl)c(Cl)c2)c(SC(C)C)s1 [Compound 5, methyl 1-(4-(3,4-dichlorophenyl)-5-(isopropylthio)thiazol-2-yl)-3-methyl-4-(2-nitrobenzyl)-1H-pyrazole-5-carboxylate] | > 80 µM |
| Cc1nn(-c2nc(-c3ccc(Cl)c(Cl)c3)c(SC(C)C)s2)c(C(=O)O)c1Cc1ccccc1[N+](=O)[O-] [Compound 6, 1-(4-(3,4-dichlorophenyl)-5-(isopropylthio)thiazol-2-yl)-3-methyl-4-(2-nitrobenzyl)-1H-pyrazole-5-carboxylic acid] | 25 to 50 µM |
| COC(=O)c1c(Cc2ccccc2NS(C)(=O)=O)c(C)nn1-c1nc(-c2ccc(Cl)c(Cl)c2)cs1 [Compound 7, methyl 1-(4-(3,4-dichlorophenyl)thiazol-2-yl)-3-methyl-4-(2-(methylsulfonamido)benzyl)-1H-pyrazole-5-carboxylate] | > 80 µM |
| Cc1nn(-c2nc(-c3ccc(Cl)c(Cl)c3)cs2)c(C(=O)O)c1Cc1ccccc1NS(C)(=O)=O [Compound 8, 1-(4-(3,4-dichlorophenyl)thiazol-2-yl)-3-methyl-4-(2-(methylsulfonamido)benzyl)-1H-pyrazole-5-carboxylic acid] | > 80 µM |
| CCCSc1sc(-n2nc(C)c(Cc3ccccc3[N+](=O)[O-])c2C(=O)OC)nc1-c1ccc(Cl)c(Cl)c1 [Compound 9, methyl 1-(4-(3,4-dichlorophenyl)-5-(propylthio)thiazol-2-yl)-3-methyl-4-(2-nitrobenzyl)-1H-pyrazole-5-carboxylate] | > 80 µM |
| CCCSc1sc(-n2nc(C)c(Cc3ccccc3[N+](=O)[O-])c2C(=O)O)nc1-c1ccc(Cl)c(Cl)c1 [Compound 10, 1-(4-(3,4-dichlorophenyl)-5-(propylthio)thiazol-2-yl)-3-methyl-4-(2-nitrobenzyl)-1H-pyrazole-5-carboxylic acid] | 25 to 50 µM |
| CCCCSc1sc(-n2nc(C)c(Cc3ccccc3[N+](=O)[O-])c2C(=O)OC)nc1-c1ccc(Cl)c(Cl)c1 [Compound 11, methyl 1-(5-(butylthio)-4-(3,4-dichlorophenyl)thiazol-2-yl)-3-methyl-4-(2-nitrobenzyl)-1H-pyrazole-5-carboxylate] | > 80 µM |
| CCCCSc1sc(-n2nc(C)c(Cc3ccccc3[N+](=O)[O-])c2C(=O)O)nc1-c1ccc(Cl)c(Cl)c1 [Compound 12, 1-(5-(butylthio)-4-(3,4-dichlorophenyl)thiazol-2-yl)-3-methyl-4-(2-nitrobenzyl)-1H-pyrazole-5-carboxylic Acid] | > 80 µM |
| CCCSc1sc(-n2nc(C)c(Cc3ccccc3NS(C)(=O)=O)c2C(=O)O)nc1-c1ccc(Cl)c(Cl)c1 [Compound 13, 1-(4-(3,4-dichlorophenyl)-5-(propylthio)thiazol-2-yl)-3-methyl-4-(2-(methylsulfonamido)benzyl)-1H-pyrazole-5-carboxylic Acid] | 25 to 50 µM |
| CCCSc1sc(-n2nc(C)c(Cc3ccccc3NS(C)(=O)=O)c2C(=O)N2CCC(CN)CC2)nc1-c1ccc(Cl)c(Cl)c1 [Compound 14, N-(2-((5-(4-(aminomethyl)piperidine-1-carbonyl)-1-(4-(3,4-dichlorophenyl)-5-(propylthio)thiazol-2-yl)-3-methyl-1H-pyrazol-4-yl)methyl)phenyl)methanesulfonamide] | 10 to 25 µM |
| Cc1nn(-c2nc(-c3ccc(Cl)c(Cl)c3)c(SC(C)C)s2)c(C(=O)O)c1Br [Compound 15, 4-bromo-1-(4-(3,4-dichlorophenyl)-5-(isopropylthio)thiazol-2-yl)-3-methyl-1H-pyrazole-5-carboxylic Acid] | 10 to 25 µM |
| Cc1cc(C(=O)O)n(-c2nc(-c3ccc(Cl)c(Cl)c3)c(SC(C)C)s2)n1 [Compound 16, 1-(4-(3,4-dichlorophenyl)-5-(isopropylthio)thiazol-2-yl)-3-methyl-1H-pyrazole-5-carboxylic Acid] | 50 to 100 µM |
| Cc1nn(-c2nc(-c3ccc(Cl)c(Cl)c3)c(SC(C)C)s2)c(C(=O)O)c1-c1ccc2nccn2c1 [Compound 17, 1-(4-(3,4-dichlorophenyl)-5-(isopropylthio)thiazol-2-yl)-4-(imidazo[1,2-a]pyridin-6-yl)-3-methyl-1H-pyrazole-5-carboxylic Acid] | 10 to 25 µM |
| Cc1nn(-c2nc(-c3ccc(Cl)c(Cl)c3)c(SC(C)C)s2)c(C(=O)O)c1-c1ccccc1 [Compound 18, 1-(4-(3,4-dichlorophenyl)-5-(isopropylthio)thiazol-2-yl)-3-methyl-4-phenyl-1H-pyrazole-5-carboxylic Acid] | 1 to 5 µM |
| Cc1nn(-c2nc(-c3ccc(Cl)c(Cl)c3)c(SC3CCCCC3)s2)c(C(=O)O)c1Cc1ccccc1[N+](=O)[O-] [Compound 19, 1-(5-(cyclohexylthio)-4-(3,4-dichlorophenyl)thiazol-2-yl)-3-methyl-4-(2-nitrobenzyl)-1H-pyrazole-5-carboxylic Acid] | 10 to 25 µM |
| Cc1nn(-c2nc(-c3ccc(Cl)c(Cl)c3)c(SC(C)C)s2)c(C(=O)O)c1-c1cc2ccccc2o1 [Compound 20, 4-(benzofuran-2-yl)-1-(4-(3,4-dichlorophenyl)-5-(isopropylthio)thiazol-2-yl)-3-methyl-1H-pyrazole-5-carboxylic Acid] | 5 to 10 µM |
| Cc1nn(-c2nc(-c3ccc(Cl)c(Cl)c3)c(SC(C)C)s2)c(C(=O)O)c1-c1ccnc(F)c1 [Compound 21, 1-(4-(3,4-dichlorophenyl)-5-(isopropylthio)thiazol-2-yl)-4-(2-fluoropyridin-4-yl)-3-methyl-1H-pyrazole-5-carboxylic acid] | 5 to 10 µM |
| Cc1cc(-c2c(C)nn(-c3nc(-c4ccc(Cl)c(Cl)c4)c(SC(C)C)s3)c2C(=O)O)cc(C)n1 [Compound 23, 1-(4-(3,4-dichlorophenyl)-5-(isopropylthio)thiazol-2-yl)-4-(2,6-dimethylpyridin-4-yl)-3-methyl-1H-pyrazole-5-carboxylic Acid] | < 1 µM |
| Cc1nn(-c2nc(-c3ccc(Cl)c(Cl)c3)c(SC(C)C)s2)c(C(=O)O)c1-c1cc(F)cc(F)c1 [Compound 24, 1-(4-(3,4-dichlorophenyl)-5-(isopropylthio)thiazol-2-yl)-4-(3,5-difluorophenyl)-3-methyl-1H-pyrazole-5-carboxylic Acid] | 1 to 5 µM |
| Cc1nn(-c2nc(-c3cc(Cl)ccc3F)c(SC(C)C)s2)c(C(=O)O)c1-c1cc(Cl)cc(Cl)c1 [Compound 25, 1-(4-(5-chloro-2-fluorophenyl)-5-(isopropylthio)thiazol-2-yl)-4-(3,5-dichlorophenyl)-3-methyl-1H-pyrazole-5-carboxylic Acid] | 1 to 5 µM |
| Cc1cc(-c2c(C)nn(-c3nc(-c4cc(Cl)ccc4F)c(SC(C)C)s3)c2C(=O)O)cc(C)n1 [Compound 26, 1-(4-(5-chloro-2-fluorophenyl)-5-(isopropylthio)thiazol-2-yl)-4-(2,6-dimethylpyridin-4-yl)-3-methyl-1H-pyrazole-5-carboxylic Acid] | 5 to 10 µM |
| Cc1noc(C)c1-c1nc(-n2nc(C)c(-c3cc(Cl)cc(Cl)c3)c2C(=O)O)sc1SC(C)C [Compound 27, 4-(3,5-dichlorophenyl)-1-(4-(3,5-dimethylisoxazol-4-yl)-5-(isopropylthio)thiazol-2-yl)-3-methyl-1H-pyrazole-5-carboxylic Acid] | > 25 µM |
| Cc1nn(-c2nc(-c3cnn(C)c3)c(SC(C)C)s2)c(C(=O)O)c1-c1cc(Cl)cc(Cl)c1 [Compound 28, 4-(3,5-dichlorophenyl)-1-(5-(isopropylthio)-4-(1-methyl-1H-pyrazol-4-yl)thiazol-2-yl)-3-methyl-1H-pyrazole-5-carboxylic Acid] | > 25 µM |
| Cc1nn(-c2nc(-c3ccncc3)c(SC(C)C)s2)c(C(=O)O)c1-c1cc(Cl)cc(Cl)c1 [Compound 29, 4-(3,5-dichlorophenyl)-1-(5-(isopropylthio)-4-(pyridin-4-yl)thiazol-2-yl)-3-methyl-1H-pyrazole-5-carboxylic acid] | > 25 µM |
| Cc1nn(-c2nc(-c3cccnc3)c(SC(C)C)s2)c(C(=O)O)c1-c1cc(Cl)cc(Cl)c1 [Compound 30, 4-(3,5-dichlorophenyl)-1-(5-(isopropylthio)-4-(pyridin-3-yl)thiazol-2-yl)-3-methyl-1H-pyrazole-5-carboxylic acid] | > 25 µM |
